In patent US10617710B2, “Agent for sedating response to external stimulation in skin and method for sedating that response” (Shiseido Company, Ltd, priority 2014, dated 2020):

System: CD39 gene expression
Assay: CD39 expression promoting effect in human Langerhans cell-like cells (THP-1) under dexamethasone stress, RT-PCR
Assay type: cell-based
Details: THP-1 cells, 10 nM dexamethasone added, versus dexamethasone non-addition group
Method: THP-1 cells (American Type Culture Collection, VA, USA) were used as a substitute for human Langerhans cells. Approximately 200,000 THP-1 cells were cultured to confluence in RPMI1640 medium containing 10% FBS. Following culturing, stress hormone in the form of 10 nM dexamethasone was added followed by the respective addition of 0.1% polyoxyethylene (POE) 14/polyoxypropylene (POP) 7 random copolymer dimethyl ether (A), 0.01% of a 2% aqueous solution of sodium carboxymethyl-beta glucan (CM-Glucan, Mibelle Biochemistry) (B) and 0.1% rosewater (Bulgaria Rose Water, Toyotama International) (C). Moreover, a three-type mixture group (ABC) was added that incorporated one-third each of all three components. After culturing for 24 hours after addition, RNA was extracted using Isogen (Wako Pure Chemical Industries) followed by synthesis of cDNA using Superscript III and random primers (Invitrogen). RT-PCR was carried out with the Prism 7900HT (ABI) using SYBR Green (Invitrogen) and the primers indicated below.
During this RT-PCR, ribosomal protein S9 was used as normalization factor.

C[C@@H]1C[C@H]2[C@@H]3CCC4=CC(=O)C=C[C@]4(C)[C@@]3(F)[C@@H](O)C[C@]2(C)[C@@]1(O)C(=O)CO [dexamethasone]
CD39 gene expression level (RT-PCR, normalized to ribosomal protein S9): expression of CD39 decreased
